Results reported in ChEMBL document CHEMBL4004854, “Pyrrolo[3',2':6,7]cyclohepta[1,2-b]pyridines with potent photo-antiproliferative activity” (Eur J Med Chem, 2017).
Active and inactive are the calls of the source. No cut-off for these calls is given here.

Experiments:
[1] = Dark toxicity against human Jurkat cells assessed as reduction in cell viability after 72 hrs by MTT assay; assay type: cell-based
[2] = tested on: MCF7; assay: Phototoxicity against human MCF7 cells assessed as reduction in cell viability preincubated for 30 mins followed by 1.25 J/cm2 UV light irradiation measured after 48 hrs by MTT assay; assay type: functional, cell-based; conditions: MCF7, light or radiation study
[3] = tested on: K562; assay: Phototoxicity against human K562 cells assessed as reduction in cell viability preincubated for 30 mins followed by 1.25 J/cm2 UV light irradiation measured after 48 hrs by MTT assay; assay type: functional, cell-based; conditions: K562, light or radiation study
[4] = Dark toxicity against human K562 cells assessed as reduction in cell viability after 72 hrs by MTT assay; assay type: cell-based
[5] = tested on: MCF7; assay: Induction of ROS generation in human MCF7 cells up to 4 uM measured after 2 hrs under dark condition by H2DCFDA staining based fluorescence assay; assay type: cell-based; conditions: mcf7, 2 h
[6] = Dark toxicity against human MCF7 cells assessed as reduction in cell viability after 72 hrs by MTT assay; assay type: cell-based
[7] = tested on: MCF7; assay: Induction of apoptosis in human MCF7 cells assessed as apoptotic cells at 20 uM upon UV light irradiation measured after 24 hrs by Annexin V-FITC/propidium iodide staining based flow cytometry (reference value: 22%); assay type: functional
[8] = tested on: MCF7; assay: Induction of lysosomal activation in human MCF7 cells at 2 uM upon UV light irradiation measured up to 2 hrs by lysotracker green DND26 dye based confocal microscopic method; assay type: functional, cell-based
[9] = tested on: MCF7; assay: Induction of apoptosis in human MCF7 cells assessed as live cells at 20 uM upon UV light irradiation measured after 24 hrs by Annexin V-FITC/propidium iodide staining based flow cytometry (reference value: 72%); assay type: functional
[10] = tested on: MCF7; assay: Induction of lysosomal activation in human MCF7 cells at 2 uM under dark condition measured up to 2 hrs by lysotracker green DND26 dye based confocal microscopic method; assay type: cell-based; conditions: mcf7, 2 h
[11] = tested on: MCF7; assay: Induction of mitochondrial dysfunction in human MCF7 cells at 2 uM under dark condition measured after 0.33 to 2 hrs by mitotracker orange CMTM-ROS/LCS1 dye based confocal microscopic method; assay type: cell-based; conditions: mcf7, 2 µM
[12] = tested on: Jurkat; assay: Phototoxicity against human Jurkat cells assessed as reduction in cell viability preincubated for 30 mins followed by 1.25 J/cm2 UV light irradiation measured after 48 hrs by MTT assay; assay type: functional, cell-based; conditions: light or radiation study
[13] = tested on: MCF7; assay: Induction of mitochondrial dysfunction in human MCF7 cells at 2 uM upon UV light irradiation measured after 0.33 to 2 hrs by mitotracker orange CMTM-ROS/LCS1 dye based confocal microscopic method; assay type: functional, cell-based
[14] = tested on: Jurkat; assay: Induction of lipid peroxidation in human Jurkat cells upon 2.5 J/cm2 UV light irradiation measured after 24 hrs by TBARS assay; assay type: functional, cell-based
[15] = tested on: Jurkat; assay: Phototoxic index, ratio of CC50 for human Jurkat cells under dark condition to EC50 for human Jurkat cells under UV light irradiated condition
[16] = tested on: MCF7; assay: Induction of apoptosis in human MCF7 cells assessed as caspase-3 activation at 0.25 to 0.5 uM upon 2.5 J/cm2 UV light irradiation measured after 24 hrs by Western blot method; assay type: functional, cell-based
[17] = Singlet oxygen sensitizing activity in aqueous acetonitrile solution irradiated with nanosecond laser flash photolysis assessed as lowest triplet-excited state by measuring long lived transient life time at 10^-4 M at 440 nanometer by spectroscopic method
[18] = tested on: MCF7; assay: Induction of apoptosis in human MCF7 cells assessed as tBID activation at 0.25 to 0.5 uM upon 2.5 J/cm2 UV light irradiation measured after 24 hrs by Western blot method; assay type: functional, cell-based
[19] = tested on: MCF7; assay: Induction of apoptosis in human MCF7 cells assessed as apoptotic cells at 0.7 uM upon UV light irradiation measured after 24 hrs by Annexin V-FITC/propidium iodide staining based flow cytometry (reference value: 22%); assay type: functional
[20] = tested on: Jurkat; assay: Phototoxicity against human Jurkat cells assessed as cell viability at 0.075 uM preincubated for 30 mins followed by 2.5 J/cm2 UV light irradiation measured after 72 hrs in presence of vitamin E by MTT assay relative to control; assay type: functional; conditions: light or radiation study, read-out: Activity
[21] = tested on: MCF7; assay: Phototoxic index, ratio of CC50 for human MCF7 cells under dark condition to EC50 for human MCF7 cells under UV light irradiated condition
[22] = Drug metabolism in aqueous acetonitrile solution assessed as by-product formation at 2.3 10^-5M upon light irradiation by UV-absorption method; assay type: physicochemical; conditions: buffer
[23] = tested on: MCF7; assay: Induction of mitochondrial dysfunction in human MCF7 cells assessed as organelle fusion at 2 uM upon UV light irradiation measured after 0.33 to 2 hrs by mitotracker orange CMTM-ROS/LCS1 dye based confocal microscopic method; assay type: functional, cell-based
[24] = Singlet oxygen sensitizing activity in aqueous acetonitrile solution irradiated with nanosecond laser flash photolysis assessed as lowest triplet-excited state by measuring short lived transient life time at 10^-4 M at 520 nanometer under argon saturated condition by spectroscopic method
[25] = tested on: MCF7; assay: Induction of mitochondrial dysfunction in human MCF7 cells assessed as perinuclear clustering at 2 uM upon UV light irradiation measured after 0.33 to 2 hrs by mitotracker orange CMTM-ROS/LCS1 dye based confocal microscopic method; assay type: functional, cell-based
[26] = tested on: Jurkat; assay: Phototoxicity against human Jurkat cells assessed as cell viability at 0.075 uM preincubated for 30 mins followed by 2.5 J/cm2 UV light irradiation measured after 72 hrs in presence of hydroxyl radical scavenger DMTU by MTT assay relative to control; assay type: functional; conditions: light or radiation study, read-out: Activity
[27] = tested on: Escherichia coli; assay: Induction of Escherichia coli pBR322 DNA oxidative damage at 40 uM upon 7.5 J/cm2 UV-A light irradiation in presence of endonuclease-3 by ethidium bromide staining based electrophoresis
[28] = Singlet oxygen sensitizing activity in aqueous acetonitrile solution irradiated with nanosecond laser flash photolysis assessed as lowest triplet-excited state by measuring short lived transient life time at 10^-4 M at 520 nanometer under oxygen saturated condition by spectroscopic method
[29] = tested on: Escherichia coli; assay: Induction of Escherichia coli pBR322 DNA double strand break assessed as linear form DNA bands at 10 to 40 uM upon 7.5 J/cm2 UV-A light irradiation by ethidium bromide staining based UV transillumination assay
[30] = tested on: K562; assay: Phototoxic index, ratio of CC50 for human K562 cells under dark condition to EC50 for human K562 cells under UV light irradiated condition
[31] = Induction of singlet oxygen photogeneration in aqueous acetonitrile solution of ADPA assessed as photobleaching of anthracene absorption upon 150 Watt mercury light irradiation at 2.3 10^-5M at 400 nanometer measured up to 100 mins
[32] = Drug metabolism in aqueous acetonitrile solution assessed as by-product formation at 2.3 10^-5M upon light irradiation by HPLC analysis; assay type: physicochemical; conditions: buffer
[33] = Induction of singlet oxygen photogeneration in aqueous acetonitrile solution of ADPA assessed as photobleaching of anthracene absorption upon 150 Watt mercury light irradiation at 2.3 10^-5M at 400 nanometer measured up to 100 mins by ferrioxalate actinometry
[34] = tested on: MCF7; assay: Induction of mitochondrial dysfunction in human MCF7 cells assessed as mild swelling at 2 uM upon UV light irradiation measured after 0.33 to 2 hrs by mitotracker orange CMTM-ROS/LCS1 dye based confocal microscopic method; assay type: functional, cell-based
[35] = tested on: MCF7; assay: Induction of ROS generation in human MCF7 cells up to 4 uM preincubated for 30 mins followed by UV light irradiation measured after 2 hrs in presence of 200 to 500 nM antioxidant NAC by H2DCFDA staining based fluorescence assay; assay type: functional, cell-based
[36] = tested on: Escherichia coli; assay: Induction of Escherichia coli pBR322 DNA single strand break assessed as open circular form DNA bands at 10 to 40 uM upon 7.5 J/cm2 UV-A light irradiation by ethidium bromide staining based UV transillumination assay
[37] = tested on: Escherichia coli; assay: Induction of Escherichia coli pBR322 DNA oxidative damage at 40 uM upon 7.5 J/cm2 UV-A light irradiation in presence of Fpg by ethidium bromide staining based electrophoresis
[38] = tested on: MCF7; assay: Induction of lysosomal membrane impairment in human MCF7 cells at 2 uM upon UV light irradiation measured up to 2 hrs by lysotracker green DND26 dye based confocal microscopic method; assay type: functional, cell-based
[39] = tested on: MCF7; assay: Induction of ROS generation in human MCF7 cells at 4 uM preincubated for 30 mins followed by UV light irradiation measured after 2 hrs by H2DCFDA staining based fluorescence assay relative to control; assay type: functional
[40] = Singlet oxygen sensitizing activity in aqueous acetonitrile solution irradiated with nanosecond laser flash photolysis assessed as lowest triplet-excited state by measuring short lived transient life time at 10^-4 M at 520 nanometer under air equilibrated condition by spectroscopic method
[41] = tested on: MCF7; assay: Induction of apoptosis in human MCF7 cells assessed as necrotic cells at 0.7 uM upon UV light irradiation measured after 24 hrs by Annexin V-FITC/propidium iodide staining based flow cytometry relative to control; assay type: functional
[42] = Singlet oxygen sensitizing activity in aqueous acetonitrile solution irradiated with nanosecond laser flash photolysis assessed as lowest triplet-excited state by measuring short lived transient life time at 10^-4 M at 520 nanometer by spectroscopic method

## Cn1ccc2c1-c1c(cc(S(=O)(=O)c3ccccc3)c(=O)n1C)CCC2
[1]
  CC50 at 72 h: > 20 µM
[2]
  EC50: > 20 µM
[3]
  EC50: > 20 µM
[4]
  CC50 at 72 h: > 20 µM
[5]
  Activity: Non-Toxic
[6]
  CC50 at 72 h: > 20 µM
[7]
  Activity: 25%
[8]
  Activity: inactive
[9]
  Activity: 66%
[10]
  Activity: Non-Toxic
[11]
  Activity: Non-Toxic
[12]
  EC50: > 20 µM
[13]
  Activity: inactive

## CCOC(=O)c1cc2c(n1Cc1ccc(OC)cc1)-c1[nH]c(=O)c(S(=O)(=O)c3ccccc3)cc1CCC2
[14]
  Activity: Dose-dependent effect
[15]
  Ratio CC50/EC50: >95.24
[1]
  CC50 at 72 h: > 20 µM
[16]
  Activity: Active
[17]
  Time: > 30 microsec
[2]
  EC50: 0.7 µM
[18]
  Activity: Active
[19]
  Activity: 36%
[20]
  viability at 0.075 µM: 80 to 90%
[21]
  Ratio CC50/EC50: >28.53
[22]
  Drug metabolism: Metabolite_Notdetected
[3]
  EC50: 0.28 µM
[23]
  Activity: Active
[4]
  CC50 at 72 h: > 20 µM
[6]
  CC50 at 72 h: > 20 µM
[24]
  Time: 3.2 microsec
[25]
  Activity: Active
[26]
  viability at 0.075 µM: 80 to 90%
[27]
  Activity: Active
[28]
  Time: 0.7 microsec
[29]
  Activity: inactive
[30]
  Ratio CC50/EC50: >71.43
[8]
  Activity: Active
[31]
  Activity: Active
[32]
  Drug metabolism: Metabolite_Notdetected
[33]
  Activity: Active
[34]
  Activity: Active
[35]
  Activity: inactive
[36]
  Activity: inactive
[37]
  Activity: Active
[38]
  Activity: Active
[39]
  Activity: <=150%
[11]
  Activity: Non-Toxic
[12]
  EC50: 0.21 µM
[40]
  Time: 1.2 microsec
[41]
  Activity: 18%
[42]
  Time: < 3.2 microsec
